The record followed here is patent US20240174662A1, “SMALL MOLECULE INHIBITORS OF SALT INDUCIBLE KINASES” (Janssen Biotech, Inc., priority 2021, published 2024).

As usually defined, the IC50 is the point on the concentration scale where inhibition reaches its midpoint. Higher therefore signals lower potency.

This assay addresses SIK2 (Homo sapiens (Human), UniProt Q9H0K1). As to the kind of experiment: SIK2 Enzymatic Assay Version 2 (High ATP). The format is biochemical. The settings on record: 3 mM ATP and 200 μM HDAC5tide final, ADP-Glo Max luminescence. In outline: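 Run at room temperature; SIK2 enzyme at 6 nM (2× final) preincubated with compound 30 min before reaction. ADP formation detected by ADP-Glo Max (2 h reagent, 1 h detection) with luminescence read-out.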

Sequence of SIK2 (Q9H0K1 whole entry, species assumed): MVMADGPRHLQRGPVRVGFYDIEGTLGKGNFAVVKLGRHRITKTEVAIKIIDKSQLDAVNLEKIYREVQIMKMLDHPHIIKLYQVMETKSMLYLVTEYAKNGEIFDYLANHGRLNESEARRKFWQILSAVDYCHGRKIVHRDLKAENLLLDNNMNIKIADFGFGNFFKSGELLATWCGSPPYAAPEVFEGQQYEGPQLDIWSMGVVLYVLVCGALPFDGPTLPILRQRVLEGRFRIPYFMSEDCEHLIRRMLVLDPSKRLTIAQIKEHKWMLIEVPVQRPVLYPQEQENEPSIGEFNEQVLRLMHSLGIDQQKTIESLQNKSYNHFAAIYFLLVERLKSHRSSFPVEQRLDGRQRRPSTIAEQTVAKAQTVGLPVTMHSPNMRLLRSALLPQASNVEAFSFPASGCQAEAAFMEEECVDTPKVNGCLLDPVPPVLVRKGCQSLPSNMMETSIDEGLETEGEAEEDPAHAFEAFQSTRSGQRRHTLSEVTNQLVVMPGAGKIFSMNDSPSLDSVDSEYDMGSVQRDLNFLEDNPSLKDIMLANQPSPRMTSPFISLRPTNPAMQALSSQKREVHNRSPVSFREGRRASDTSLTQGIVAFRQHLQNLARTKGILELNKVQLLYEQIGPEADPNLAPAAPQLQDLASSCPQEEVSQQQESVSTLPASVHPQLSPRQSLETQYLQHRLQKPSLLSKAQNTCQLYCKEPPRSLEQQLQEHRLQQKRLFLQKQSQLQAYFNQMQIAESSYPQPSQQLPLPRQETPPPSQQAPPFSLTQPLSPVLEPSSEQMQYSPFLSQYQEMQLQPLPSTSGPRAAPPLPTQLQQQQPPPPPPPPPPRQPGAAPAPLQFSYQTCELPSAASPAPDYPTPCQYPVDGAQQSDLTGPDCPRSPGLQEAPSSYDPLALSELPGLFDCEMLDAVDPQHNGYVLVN

Compound `CCN1CC[C@@H]1COc1cnn(C(F)F)c1-c1ccn2nc(Nc3cnn(C)c3)cc2c1` [Example 104, 5-[2-(difluoromethyl)-4-[[(2R)-1-ethylazetidin-2-yl]methoxy]pyrazol-3-yl]-N-(1-methylpyrazol-4-yl)pyrazolo[1,5-a]pyridin-2-amine] registered a half-maximal inhibitory concentration (IC50) of 16.9 nM.

In turn, `CN1CC[C@@H]1COc1cnn(C)c1-c1ccn2nc(NC(=O)[C@H]3C[C@@H]3c3ccccc3)cc2c1` (racemic) [Example 71, trans-N-[5-[2-methyl-4-[((2R)-1-methylazetidin-2-yl)methoxy]pyrazol-3-yl]pyrazolo[1,5-a]pyridin-2-yl]-2-phenyl-cyclopropanecarboxamide] returned an IC50 of 22.3 nM.

In turn, `CCN1CC[C@@H]1COc1cnn(C)c1-c1ccn2nc(Nc3ccnc(OC)n3)cc2c1` [Example 163, 5-[4-[[(2R)-1-ethylazetidin-2-yl]methoxy]-2-methyl-pyrazol-3-yl]-N-(2-methoxypyrimidin-4-yl)pyrazolo[1,5-a]pyridin-2-amine] gave a half-inhibitory concentration (IC50) of 2.2 nM.

Compound `C[C@@H]1CN(C)C[C@@H]1OCc1cnn(C)c1-c1ccn2nc(NC(=O)C3CC3)cc2c1` (single isomer, unassigned) [Example 197, (3*R, 4*R)—N-[5-[4-[(1,4-dimethylpyrrolidin-3-yl)oxymethyl]-2-methyl-pyrazol-3-yl]pyrazolo[1,5-a]pyridin-2-yl]cyclopropanecarboxamide] had a concentration for half-maximal inhibition (IC50) of 28.1 nM.

Compound `CCn1ncc(OC[C@H]2CCN2C)c1-c1ccn2nc(Nc3cc(C)nc(C)n3)cc2c1` [Example 130, N-(2,6-dimethylpyrimidin-4-yl)-5-[2-ethyl-4-[[(2R)-1-methylazetidin-2-yl]methoxy]pyrazol-3-yl]pyrazolo[1,5-a]pyridin-2-amine] came in with an IC50 below 0.847 nM.

Consider `Cc1onc(OCC2(C(N)=O)CNC2)c1-c1ccn2nc(NC(=O)C3CC3)cc2c1` [Example 198, 3-[[4-[2-(cyclopropanecarbonylamino)pyrazolo[1,5-a]pyridin-5-yl]-5-methyl-isoxazol-3-yl]oxymethyl]azetidine-3-carboxamide], for which the IC50 stood at 28.7 nM.

In turn, `Cc1cnc(Nc2cc3cc(-c4c(CO[C@@H]5CN(C)C[C@@H]5C)cnn4C)ccn3n2)cn1` (relative stereo) [Example 380, CIS—*S, *S-5-[4-[(1,4-dimethylpyrrolidin-3-yl)oxymethyl]-2-methyl-pyrazol-3-yl]-N-(5-methylpyrazin-2-yl)pyrazolo[1,5-a]pyridin-2-amine] had an IC50 of 3.1 nM.

Take `Cc1onc(O[C@@H]2CCNC[C@@H]2F)c1-c1ccn2nc(NC(=O)C3CC3)cc2c1` (single isomer, unassigned) [Example 215, N-(5-(3-(((3*S,4*R)-3-fluoropiperidin-4-yl)oxy)-5-methylisoxazol-4-yl)pyrazolo[1,5-a]pyridin-2-yl)cyclopropanecarboxamide]: half-maximal inhibition (IC50) was put at 27.5 nM.

In turn, `Cc1cc(Nc2cc3cc(-c4c(OC[C@H]5CCN5)noc4C)ccn3n2)nc(C)n1` [Example 320, 5-[3-[[(2R)-azetidin-2-yl]methoxy]-5-methyl-isoxazol-4-yl]-N-(2,6-dimethylpyrimidin-4-yl)pyrazolo[1,5-a]pyridin-2-amine] yielded a half-inhibitory concentration (IC50) of 50.8 nM.

The compound `Cc1cc(Nc2cc3cc(-c4c(OC[C@](C)(O)C5CC5)cnn4C)ccn3n2)nc(C)n1` (single isomer, unassigned) [Example 304, (*S)-2-cyclopropyl-1-[5-[2-[(2,6-dimethylpyrimidin-4-yl)amino]pyrazolo[1,5-a]pyridin-5-yl]-1-methyl-pyrazol-4-yl]oxy-propan-2-ol] showed a half-inhibitory concentration (IC50) of 45.7 nM.

As to `Cn1ncc(O[C@@H]2CNC[C@H]2O)c1-c1ccn2nc(NC(=O)C3CC3)cc2c1` (single isomer, unassigned) [Example 414, (3*R,4*R)—N-[5-[4-(4-hydroxypyrrolidin-3-yl)oxy-2-methyl-pyrazol-3-yl]pyrazolo[1,5-a]pyridin-2-yl]cyclopropanecarboxamide], it took 98.7 nM to reach half-maximal inhibition (IC50).

Take `Cn1ncc(CO[C@@H]2CNC[C@@H]2F)c1-c1ccn2nc(NC(=O)C3CC3)cc2c1` [Example 188, N-[5-[4-[[(3R,4S)-4-fluoropyrrolidin-3-yl]oxymethyl]-2-methyl-pyrazol-3-yl]pyrazolo[1,5-a]pyridin-2-yl]cyclopropanecarboxamide]: the midpoint of inhibition, the IC50, lay at 7.7 nM.

`Cc1snc(OC[C@H]2CN(C)CCO2)c1-c1ccn2nc(NC(=O)C3CC3)cc2c1` [Example 332, N-[5-[5-methyl-3-[[(2R)-4-methylmorpholin-2-yl]methoxy]isothiazol-4-yl]pyrazolo[1,5-a]pyridin-2-yl]cyclopropanecarboxamide] registered an IC50 of 58.3 nM.

`Cn1ncc(OC[C@H]2CCN2c2ccccn2)c1-c1ccn2nc(NC(=O)C3CC3)cc2c1` [Example 436, N-[5-[2-methyl-4-[[(2R)-1-(2-pyridyl)azetidin-2-yl]methoxy]pyrazol-3-yl]pyrazolo[1,5-a]pyridin-2-yl]cyclopropanecarboxamide] yielded an IC50 of 79 nM.

Consider `Cc1onc(OC[C@@H]2CCCN2C)c1-c1ccn2nc(NC(=O)C3CC3)cc2c1` [Example 500, N-[5-[5-methyl-3-[[(2S)-1-methylpyrrolidin-2-yl]methoxy]isoxazol-4-yl]pyrazolo[1,5-a]pyridin-2-yl]cyclopropanecarboxamide], for which the 50% inhibitory concentration (IC50) turned out to be 431 nM.

For `CN1CC[C@H](Oc2cnn(C)c2-c2ccn3nc(Nc4cccc(C(F)(F)F)n4)cc3c2)C1` [Example 266, 5-[2-methyl-4-[(3S)-1-methylpyrrolidin-3-yl]oxy-pyrazol-3-yl]-N-[6-(trifluoromethyl)-2-pyridyl]pyrazolo[1,5-a]pyridin-2-amine], the IC50 is 39.5 nM.

`CCc1cc(Nc2cc3cc(-c4c(OC[C@H]5CCN5CC)cnn4C)ccn3n2)nc(C)n1` [Example 172, 5-[4-[[(2R)-1-ethylazetidin-2-yl]methoxy]-2-methyl-pyrazol-3-yl]-N-(6-ethyl-2-methyl-pyrimidin-4-yl)pyrazolo[1,5-a]pyridin-2-amine] displayed an IC50 below 0.847 nM.

Regarding `Cc1cc(Nc2cc3cc(-c4c(O[C@@H]5CNC[C@@H]5F)noc4C)ccn3n2)nc(C)n1` [Example 92, N-(2,6-dimethylpyrimidin-4-yl)-5-[3-[(3R,4S)-4-fluoropyrrolidin-3-yl]oxy-5-methyl-isoxazol-4-yl]pyrazolo[1,5-a]pyridin-2-amine], the 50% inhibitory concentration (IC50) was determined as 4.3 nM.

For `Cc1onc(OC[C@@H]2CCN2C)c1-c1ccn2nc(NC(=O)C3CC3)cc2c1` [Example 498], inhibition was half-maximal at 232 nM (IC50).

As to `Cc1cc(Nc2cc3cc(-c4c(OC[C@H]5CCN5C)cnn4C)ccn3n2)nc(CC2CC2)n1` [Example 153, N-[2-(cyclopropylmethyl)-6-methyl-pyrimidin-4-yl]-5-[2-methyl-4-[[(2R)-1-methylazetidin-2-yl]methoxy]pyrazol-3-yl]pyrazolo[1,5-a]pyridin-2-amine], the IC50 was below 0.847 nM.

In the case of `[2H]C([2H])([2H])C([2H])([2H])N1CC[C@@H]1COc1cnn(C)c1-c1ccn2nc(Nc3cc(C)nc(C)n3)cc2c1` [Example 294, N-(2,6-dimethylpyrimidin-4-yl)-5-[2-methyl-4-[[(2R)-1-(1,1,2,2,2-pentadeuterioethyl)azetidin-2-yl]methoxy]pyrazol-3-yl]pyrazolo[1,5-a]pyridin-2-amine], the concentration for half-maximal inhibition (IC50) worked out at 2.6 nM.

In turn, `CCc1cc(Nc2cc3cc(-c4c(OC[C@@H]5CCN5CC)cnn4C)ccn3n2)nc(C)n1` [Example 169, 5-[4-[[(2S)-1-ethylazetidin-2-yl]methoxy]-2-methyl-pyrazol-3-yl]-N-(6-ethyl-2-methyl-pyrimidin-4-yl)pyrazolo[1,5-a]pyridin-2-amine] gave an IC50 of 38.7 nM.

Compound `COc1nnc(Nc2cc3cc(-c4c(OC[C@H]5CCN5C)cnn4C)ccn3n2)cc1C` [Example 121, N-(6-methoxy-5-methyl-pyridazin-3-yl)-5-[2-methyl-4-[[(2R)-1-methylazetidin-2-yl]methoxy]pyrazol-3-yl]pyrazolo[1,5-a]pyridin-2-amine] displayed a half-inhibitory concentration (IC50) of 1 nM.

Turning to `C[C@H]1CN(C)[C@@H]1COc1cnn(C)c1-c1ccn2nc(NC(=O)C3CC3)cc2c1` [Example 12, N-[5-[4-[[(2S,3S)-1,3-dimethylazetidin-2-yl]methoxy]-2-methyl-pyrazol-3-yl]pyrazolo[1,5-a]pyridin-2-yl]cyclopropanecarboxamide], the half-inhibitory concentration (IC50) was determined as 117 nM.

`Cc1onc(OC[C@H]2CCCCN2C)c1-c1ccn2nc(NC(=O)C3CC3)cc2c1` [Example 502, N-[5-[5-methyl-3-[[(2R)-1-methyl-2-piperidyl]methoxy]isoxazol-4-yl]pyrazolo[1,5-a]pyridin-2-yl]cyclopropanecarboxamide] displayed an IC50 of 1580 nM.

Compound `CN1CC(COc2cnn(C)c2-c2ccn3nc(NC(=O)C4CC4)cc3c2)C1` [Example 8, N-[5-[2-methyl-4-[(1-methylazetidin-3-yl)methoxy]pyrazol-3-yl]pyrazolo[1,5-a]pyridin-2-yl]cyclopropanecarboxamide] came in with a half-inhibitory concentration (IC50) of 18.9 nM.

Turning to `CN[C@H](COc1noc(C)c1-c1ccn2nc(NC(=O)C3CC3)cc2c1)c1ccccn1` [Example 224, N-[5-[5-methyl-3-[(2S)-2-(methylamino)-2-(2-pyridyl)ethoxy]isoxazol-4-yl]pyrazolo[1,5-a]pyridin-2-yl]cyclopropanecarboxamide], the half-inhibitory concentration (IC50) stood at 21.4 nM.

Take `COC1(COc2noc(C)c2-c2ccn3nc(Nc4cnccn4)cc3c2)CNC1` [Example 318, 5-[3-[(3-methoxyazetidin-3-yl)methoxy]-5-methyl-isoxazol-4-yl]-N-pyrazin-2-yl-pyrazolo[1,5-a]pyridin-2-amine]: the 50% inhibitory concentration (IC50) was determined as 13.5 nM.

The compound `CN1CCCC[C@@H]1COc1cnn(C)c1-c1ccn2nc(NC(=O)C3CC3)cc2c1` [Example 507, N-[5-[2-methyl-4-[[(2R)-1-methyl-2-piperidyl]methoxy]pyrazol-3-yl]pyrazolo[1,5-a]pyridin-2-yl]cyclopropanecarboxamide] yielded a concentration for half-maximal inhibition (IC50) of 1700 nM.
